Measurements as given in ChEMBL document CHEMBL1130938, “L-tryptophan urea amides as NK1/NK2 dual antagonists” (Bioorg Med Chem Lett, 1998).

What was measured:
Format in all cases: cell-based
Substance-K receptor = target: T1, Substance-K receptor (Homo sapiens, UniProt P21452); assay: Inhibition of cloned human NK2 (Neurokinin 2) receptor, stably expressed in chinese hamster ovary (CHO) cells was determined
T1 sequence (P21452 whole entry): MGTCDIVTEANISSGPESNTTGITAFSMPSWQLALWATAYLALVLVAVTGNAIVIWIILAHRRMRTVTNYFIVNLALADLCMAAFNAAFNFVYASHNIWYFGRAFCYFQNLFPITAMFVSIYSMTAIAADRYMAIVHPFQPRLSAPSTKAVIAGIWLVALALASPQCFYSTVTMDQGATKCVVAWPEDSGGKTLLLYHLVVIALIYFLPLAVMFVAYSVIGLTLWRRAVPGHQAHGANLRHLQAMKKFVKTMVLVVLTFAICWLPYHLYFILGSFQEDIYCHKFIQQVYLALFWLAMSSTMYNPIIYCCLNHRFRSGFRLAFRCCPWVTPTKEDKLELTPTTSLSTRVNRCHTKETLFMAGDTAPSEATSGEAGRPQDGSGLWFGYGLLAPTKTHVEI

Substance-P receptor [1] = target: T2, Substance-P receptor (Homo sapiens, UniProt P25103); assay: (§1) Inhibition of cloned human NK1 (Neurokinin 1) receptor, stably expressed in chinese hamster ovary (CHO) cells was determined
T2 sequence (P25103 whole entry): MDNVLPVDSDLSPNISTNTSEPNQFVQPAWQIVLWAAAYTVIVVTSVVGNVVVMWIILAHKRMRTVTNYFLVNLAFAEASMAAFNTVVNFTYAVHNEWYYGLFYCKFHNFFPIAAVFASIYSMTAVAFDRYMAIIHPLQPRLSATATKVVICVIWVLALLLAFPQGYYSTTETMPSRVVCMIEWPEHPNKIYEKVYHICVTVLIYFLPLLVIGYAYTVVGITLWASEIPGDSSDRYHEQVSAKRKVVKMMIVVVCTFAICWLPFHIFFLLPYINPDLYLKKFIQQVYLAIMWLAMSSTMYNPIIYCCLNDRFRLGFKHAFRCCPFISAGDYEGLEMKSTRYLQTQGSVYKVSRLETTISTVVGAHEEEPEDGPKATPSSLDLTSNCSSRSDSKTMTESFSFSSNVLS

Substance-P receptor [2] = target: T2, Substance-P receptor; assay: as §1; settings: concentration not given here

Work on `CSN1CC2(CCN(C(=O)N[C@@H](Cc3c[nH]c4ccccc34)C(=O)N(C)Cc3ccccc3)CC2)c2ccccc21` yielded an IC50 (Substance-K receptor) of 24 nM and an IC50 (Substance-P receptor [1]) of 14 nM.
Work on `CSN1CC2(CCN(C(=O)N[C@H](Cc3c[nH]c4ccccc34)C(=O)N(C)Cc3ccccc3)CC2)c2ccccc21` yielded an IC50 (Substance-K receptor) of 577 nM and an IC50 (Substance-P receptor [1]) of 164 nM.
Work on `CNC(=O)N[C@@H](Cc1c[nH]c2ccccc12)C(=O)OCc1cc(C)cc(C)c1` yielded an IC50 (Substance-K receptor) greater than 5000 nM.
Molecule `CSN1CC2(CCN(C(=O)N[C@@H](Cc3c[nH]c4ccccc34)C(=O)N(C)Cc3cc(C(F)(F)F)cc(C(F)(F)F)c3)CC2)c2ccccc21` has an IC50 (Substance-K receptor) of 4200 nM and an IC50 (Substance-P receptor [1]) of 1 nM.
`CSN1CC2(CCN(C(=O)N[C@@H](COCc3ccccc3)C(=O)N(C)Cc3ccccc3)CC2)c2ccccc21` gave an IC50 (Substance-K receptor) of 258 nM and an IC50 (Substance-P receptor [1]) of 480 nM.
Work on `CN(Cc1ccccc1)C(=O)[C@H](Cc1c[nH]c2ccccc12)NC(=O)N1CCC2(CCc3ccccc32)CC1` yielded an IC50 (Substance-K receptor) of 27 nM and an IC50 (Substance-P receptor [1]) of 56 nM.
In the case of `O=C(NCc1ccccc1)[C@H](Cc1c[nH]c2ccccc12)NC(=O)N1CCC2(CCc3ccccc32)CC1`, the IC50 (Substance-K receptor) is reported as 14 nM and the IC50 (Substance-P receptor [1]) is reported as 227 nM.
For `Cc1cc(C)cc(CN(C)C(=O)[C@H](Cc2c[nH]c3ccccc23)NC(=O)c2ccccc2)c1`, the IC50 (Substance-K receptor) was greater than 5000 nM and the IC50 (Substance-P receptor [1]) was greater than 1100 nM.
Molecule `O=C(Nc1ccccc1)[C@H](Cc1c[nH]c2ccccc12)NC(=O)N1CCC2(CCc3ccccc32)CC1` has an IC50 (Substance-K receptor) of 2100 nM and an inhibition (Substance-P receptor [2]) of 39%.
In the case of `CN(Cc1ccccc1)C(=O)[C@H](Cc1c[nH]c2ccccc12)NC(=O)N1CCC2(C=Cc3ccccc32)CC1`, the IC50 (Substance-K receptor) is reported as 18 nM and the IC50 (Substance-P receptor [1]) is reported as 68 nM.
For `CSN1CC2(CCN(C(=O)N[C@@H](Cc3c[nH]c4ccccc34)C(=O)N(C)Cc3cc(C)cc(C)c3)CC2)c2ccccc21`, the IC50 (Substance-K receptor) was 1400 nM and the IC50 (Substance-P receptor [1]) was 10 nM.
Molecule `CC(=O)N[C@@H](Cc1c[nH]c2ccccc12)C(=O)OCc1cc(C(F)(F)F)cc(C(F)(F)F)c1` [L-732138] has an IC50 (Substance-K receptor) greater than 5000 nM.
Molecule `CSN1CC2(CCN(C(=O)N[C@@H](CCc3ccccc3)C(=O)N(C)Cc3ccccc3)CC2)c2ccccc21` has an IC50 (Substance-K receptor) of 166 nM and an IC50 (Substance-P receptor [1]) of 1100 nM.
For `CC(=O)NC1(c2ccccc2)CCN(C(=O)N[C@@H](Cc2c[nH]c3ccccc23)C(=O)N(C)Cc2ccccc2)CC1`, the IC50 (Substance-K receptor) was 928 nM and the IC50 (Substance-P receptor [1]) was 77 nM.
Work on `CSN1CC2(CCN(C(=O)N[C@@H](Cc3c[nH]c4ccccc34)C(=O)OCc3ccccc3)CC2)c2ccccc21` yielded an IC50 (Substance-K receptor) of 4500 nM and an IC50 (Substance-P receptor [1]) of 23 nM.
`CC(=O)NC1(c2ccccc2)CCN(CC[C@H](CN(C)C(=O)c2ccccc2)c2ccc(Cl)c(Cl)c2)CC1` [SAREDUTANT] gave an IC50 (Substance-K receptor) of 0.13 nM and an IC50 (Substance-P receptor [1]) of 800 nM.
`O=C(NCCc1ccccc1)[C@H](Cc1c[nH]c2ccccc12)NC(=O)N1CCC2(CCc3ccccc32)CC1` showed an IC50 (Substance-K receptor) of 211 nM and an IC50 (Substance-P receptor [1]) of 332 nM.
`CCN(Cc1ccccc1)C(=O)[C@H](Cc1c[nH]c2ccccc12)NC(=O)N1CCC2(CCc3ccccc32)CC1` was tested, and the IC50 (Substance-K receptor) was 139 nM and the IC50 (Substance-P receptor [1]) was 242 nM.
`CSN1CC2(CCN(C(=O)N[C@@H](Cc3c[nH]c4ccccc34)C(=O)OCc3cc(C(F)(F)F)cc(C(F)(F)F)c3)CC2)c2ccccc21` gave an IC50 (Substance-K receptor) greater than 1000 nM and an IC50 (Substance-P receptor [1]) of 0.58 nM.
